From patent US8455397B2, “Penoxsulam as a turfgrass, vineyard and orchard floor herbicide” (Dow AgroSciences, LLC, priority 2005, dated 2013)

Tests used:
[1] = tested on: little mallow (MALPA); assay: Pre-emergence orchard floor weeds, greenhouse study; assay type: in vivo, Malva parviflora; conditions: 28 Days After Application
Method: (§1) Greenhouse studies were conducted by seeding species in a loam soil and applying the herbicides to the soil surface using a Cornwall 5 milliliter glass syringe fitted with a TeeJet TN-3 nozzle on an area basis Immediately following herbicide application the pots were irrigated over the top to move the herbicides into the seeding zone. Pots were kept well irrigated throughout the trial. A percent visual weed control assessment was taken 4 weeks after application. Control was determined visually by comparing treated and untreated pots and scored on a 0 to 100 percent scale where 0 corresponds to no control and 100 corresponds to complete kill, or no emergence.

[2] = tested on: broadleaf plantain (PLAMA); assay: Postemergent granule herbicides, turfgrass field studies; assay type: in vivo, Plantago major L.; conditions: Table I, 2 sites, Penoxsulam 140 gai/Ha, Scotts Plus 2 1682+841 gae/Ha, Trimec 1121+516+112 gae/Ha
Method: (§2) Field studies were conducted in established turfgrass sites containing a natural population of target broadleaf weeds. Replicated trials, containing a minimum of three replications and having individual plots ranging in size from 25 to 50 ft. sq (2.3 to 4.6 square meters), were initiated in the late spring when turf and weeds were actively growing. Granule treatments were uniformly applied to individual plots using a common hand-shaker method. Applications were made in the early morning when dew was present. Natural rainfall and supplemental irrigation were used to maintain healthy turf and active weed growth throughout the study period. Control of each weed species in the study site was made at 2, 4 and 8 weeks after treatment. Control was determined visually by comparing treated and untreated weeds and scored on a 0 to 100 percent scale where 0 corresponds to no control and 100 corresponds to complete kill.

[3] = tested on: white clover (TRFRE); assay: as above; assay type: in vivo, Trifolium repens L.
Method: as §2

[4] = tested on: white clover (TRFRE); assay: Granule carrier comparison, pre-emergence greenhouse study; assay type: in vivo, Trifolium repens L.; conditions: pre-emergent greenhouse
Method: (§3) Greenhouse and field studies evaluated the effect of two granule carriers and two particles sizes on the postemergent broadleaf activity of penoxsulam. The two carriers were a 46-0-0 and 28-4-12 fertilizer blend and the particle sizes averaged 0.75 mm and 2.15 mm.
(§4) Greenhouse studies were applied both post and pre-emergence to broadleaf weeds and sedge reared from seed or nutlet in 12.7″ (32.25 cm) by 8.8″ (22.35 cm) flats of a loam soil. Particle size and carrier were evaluated post emergence, carrier comparisons with the smaller particle size of 0.75 was evaluated pre-emergence. Stage of growth of species at post emergence application: PLAMA and TAROF in the 3 to 5 leaf stage, TRFRE in the 3rd tri-foliate stage and CYPES in the 3 to 4 leaf stage. Post emergence trial design was a replicated block, one species per flat, 3 replicate flats per treatment. Granule treatments were uniformly applied to individual flats on an area basis using a common hand-shaker method. Post emergence applications were made to the flat covering both soil and misted foliage. Trial was sub-irrigated daily, and watered over the top 1 time per week starting 7 days after application to simulate a natural rainfall event. Active weed growth was maintained throughout the study period. Weed control of each species in the post emergence study was assessed at 2, 3 and 4 weeks after treatment. Pre-emergence trial design was 2 species per flat, 4 replicate flats, block design. Pre-emergence applications were made to the soil surface using a common hand shaker method on an area basis. Overhead irrigation was maintained throughout the trial. Weed control of each species in the pre-emergence study was assessed at 2, 3, 4 and 5 weeks after application. Control was determined visually by comparing treated and untreated flats and scored on a 0 to 100 percent scale where 0 corresponds to no control and 100 corresponds to complete kill.

[5] = tested on: common groundsel (SENVU); assay: Pre-emergence orchard floor weeds, greenhouse study; assay type: in vivo, Senecio vulgaris; conditions: 28 Days After Application
Method: as §1

[6] = tested on: yellow nutsedge (CYPES); assay: Granule carrier/particle size, post emergence greenhouse study; assay type: in vivo, Cypres esculentus L.; conditions: postemergent greenhouse
Method: as §3, §4

[7] = tested on: Cyperus esculentus (CYPES); assay: Post emergence synergy greenhouse study, penoxsulam + commercial turf granules; assay type: in vivo; conditions: 27 Days After Application
Method: Post emergence greenhouse studies were conducted by applying a 0.14% w/w (weight for weight) penoxsulam loaded urea granule alone and in combination with commercial turf granules. The loading for the commercial granules is listed below Table XI. Greenhouse studies were applied on a kilogram of product per hectare basis (KG PR/Ha) post emergence to broadleaf weeds and sedge reared from seed or nutlet in 12.7″ (32.25 cm) by 8.8″ (22.35 cm) flats of a loam soil. Trial design was replicated block, one species per flat, 4 replicate flats per treatment. Post emergence applications were made to the flat covering both soil and misted foliage using a common hand-shaker method distributing the samples uniformly over the flat. Trial was sub-irrigated daily, and watered over the top 1 time per week starting 7 days after application to simulate a natural rainfall event. Active weed growth was maintained throughout the study period. Weed control was assessed at 2, 3 and 4 weeks after treatment. Control was determined visually by comparing treated and untreated flats and scored on a 0 to 100 percent scale where 0 corresponds to no control and 100 corresponds to complete kill.

[8] = carrier 28-4-12, particle size 0.75 mm, 5.6 gai/Ha
[9] = carrier 28-4-12, particle size 0.75 mm, 11.2 gai/Ha
[10] = carrier 28-4-12, particle size 0.75 mm, 22.4 gai/Ha
[11] = carrier 46-0-0, particle size 0.75 mm, 5.6 gai/Ha
[12] = carrier 46-0-0, particle size 0.75 mm, 11.2 gai/Ha
[13] = carrier 46-0-0, particle size 0.75 mm, 22.4 gai/Ha

COc1cnc(OC)n2nc(NS(=O)(=O)c3c(OCC(F)F)cccc3C(F)(F)F)nc12 [Penoxsulam, 2-(2,2-difluoroethoxy)-N-(5,8-dimethoxy[1,2,4]triazolo[1,5-c]-pyrimidin-2-yl)-6-(trifluoromethyl)benzenesulfonamide]
Pre-emergent Percent Mean Control ([1]; 8.8 gai/Ha): 74%
Pre-emergent Percent Mean Control ([1]; 17.5 gai/Ha): 87%
Pre-emergent Percent Mean Control ([1]; 35 gai/Ha): 93%
Pre-emergent Percent Mean Control ([1]; 70 gai/Ha): 100%
Mean Percent Weed Control ([2]; 4 Weeks After Treatment): 81%
Mean Percent Weed Control ([2]; 8 Weeks After Treatment): 87%
Mean Percent Weed Control ([3]; Table I, 4 Weeks After Treatment, 8 sites, Penoxsulam 140 gai/Ha, Scotts Plus 2 1682+841 gae/Ha, Trimec 1121+516+112 gae/Ha): 93%
Mean Percent Weed Control ([3]; Table I, 8 Weeks After Treatment, 7 sites, Penoxsulam 140 gai/Ha, Scotts Plus 2 1682+841 gae/Ha, Trimec 1121+516+112 gae/Ha): 94%
Mean Percent Weed Control ([3]; Table III, 4 Weeks After Treatment, 22.4 gai/Ha, 8 sites): 85%
Mean Percent Weed Control ([3]; Table III, 4 Weeks After Treatment, 44.9 gai/Ha, 8 sites): 94%
Mean Percent Weed Control ([3]; Table III, 4 Weeks After Treatment, 67.3 gai/Ha, 8 sites): 96%
Mean Percent Weed Control ([3]; Table III, 4 Weeks After Treatment, 100 gai/Ha, 8 sites): 96%
Mean Percent Weed Control ([3]; Table III, 8 Weeks After Treatment, 22.4 gai/Ha, 8 sites): 74%
Mean Percent Weed Control ([3]; Table III, 8 Weeks After Treatment, 44.9 gai/Ha, 8 sites): 88%
Mean Percent Weed Control ([3]; Table III, 8 Weeks After Treatment, 67.3 gai/Ha, 8 sites): 91%
Mean Percent Weed Control ([3]; Table III, 8 Weeks After Treatment, 100 gai/Ha, 8 sites): 97%
Percent Weed Control 35 DAA [4, 8]: 80%
Percent Weed Control 35 DAA [4, 9]: 98%
Percent Weed Control 35 DAA [4, 10]: 99%
Percent Weed Control 35 DAA [4, 11]: 55%
Percent Weed Control 35 DAA [4, 12]: 75%
Percent Weed Control 35 DAA [4, 13]: 98%
Pre-emergent Percent Mean Control ([5]; 8.8 gai/Ha): 95%
Pre-emergent Percent Mean Control ([5]; 17.5 gai/Ha): 100%
Pre-emergent Percent Mean Control ([5]; 35 gai/Ha): 100%
Pre-emergent Percent Mean Control ([5]; 70 gai/Ha): 100%
Percent Weed Control 27-30 DAA [6, 8]: 18%
Percent Weed Control 27-30 DAA [6, 9]: 37%
Percent Weed Control 27-30 DAA [6, 10]: 60%
Percent Weed Control 27-30 DAA ([6]; carrier 28-4-12, particle size 2.15 mm, 5.6 gai/Ha): 37%
Percent Weed Control 27-30 DAA ([6]; carrier 28-4-12, particle size 2.15 mm, 11.2 gai/Ha): 25%
Percent Weed Control 27-30 DAA ([6]; carrier 28-4-12, particle size 2.15 mm, 22.4 gai/Ha): 35%
Percent Weed Control 27-30 DAA [6, 11]: 18%
Percent Weed Control 27-30 DAA [6, 12]: 30%
Percent Weed Control 27-30 DAA [6, 13]: 65%
Percent Weed Control 27-30 DAA ([6]; carrier 46-0-0, particle size 2.15 mm, 5.6 gai/Ha): 3%
Percent Weed Control 27-30 DAA ([6]; carrier 46-0-0, particle size 2.15 mm, 11.2 gai/Ha): 20%
Percent Weed Control 27-30 DAA ([6]; carrier 46-0-0, particle size 2.15 mm, 22.4 gai/Ha): 42%
% Control Component A ([7]; 2.4 kg Product/Ha of 0.14% w/w urea granule): 16%
% Control Component A ([7]; 8.0 kg Product/Ha of 0.14% w/w urea granule): 44%
